Measured values reported in article PMC6934184, “Selective DNA-PKcs inhibition extends the therapeutic index of localized radiotherapy and chemotherapy” (The Journal of Clinical Investigation, 2019).

Target: T1, MAP4K1 (HPK1) (Homo sapiens, UniProt Q92918)
T1 construct: purchased Thermo Fisher Scientific (Life Technologies) SelectScreen
Test: SelectScreen LanthaScreen
Assay type: binding
Settings: read-out: % displacement
Outline: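 NU5455 was profiled across the SelectScreen Broad panel of kinase activity and binding assays. Z'LYTE reactions such as CSF1R ran at apparent Km ATP, while the Adapta CAMK1 assay used ATP listed as 10. Values are given as percent.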

T1 sequence (Q92918 whole entry): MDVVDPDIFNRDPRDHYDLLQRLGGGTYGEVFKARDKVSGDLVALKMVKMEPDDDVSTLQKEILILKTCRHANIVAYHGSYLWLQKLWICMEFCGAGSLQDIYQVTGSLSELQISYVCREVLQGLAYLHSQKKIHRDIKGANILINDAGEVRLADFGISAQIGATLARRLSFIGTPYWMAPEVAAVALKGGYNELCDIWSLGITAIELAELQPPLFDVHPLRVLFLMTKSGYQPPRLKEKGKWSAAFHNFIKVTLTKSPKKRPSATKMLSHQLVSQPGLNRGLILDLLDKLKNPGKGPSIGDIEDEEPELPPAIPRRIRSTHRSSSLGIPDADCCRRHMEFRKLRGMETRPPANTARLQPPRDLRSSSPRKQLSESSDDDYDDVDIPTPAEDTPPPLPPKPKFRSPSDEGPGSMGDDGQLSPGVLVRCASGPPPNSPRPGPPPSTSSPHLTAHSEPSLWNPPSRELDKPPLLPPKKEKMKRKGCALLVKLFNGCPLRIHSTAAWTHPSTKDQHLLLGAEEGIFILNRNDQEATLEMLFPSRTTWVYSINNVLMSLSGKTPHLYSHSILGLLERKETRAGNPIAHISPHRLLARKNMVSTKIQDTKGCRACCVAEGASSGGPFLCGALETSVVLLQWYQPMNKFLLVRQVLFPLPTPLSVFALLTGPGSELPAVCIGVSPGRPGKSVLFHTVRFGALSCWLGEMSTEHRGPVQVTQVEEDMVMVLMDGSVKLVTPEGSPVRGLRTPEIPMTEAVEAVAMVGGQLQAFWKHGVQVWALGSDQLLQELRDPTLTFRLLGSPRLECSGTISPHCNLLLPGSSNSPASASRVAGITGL

CN(C(=O)CN1CCOCC1)c1ccc2sc3c(-c4cccc5c(=O)cc(N6CC7CCC(C6)O7)oc45)cccc3c2c1 [NU5455]
inhibition at 1 µM: 1.6%
